# Reference: article PMC4698308, “A new amino acid substitution (Ala-205-Phe) in acetolactate synthase (ALS) confers broad spectrum resistance to ALS-inhibiting herbicides” (Planta, 2015)
# Like-named read-outs stand apart in the source and are kept apart here.
# Assays:
# [1] = test system: annual bluegrass population POAAN-R3; design: method as in Brosnan et al. [2015]; conditions: ref Brosnan et al. [2015], cited from earlier work
# [2] = test system: annual bluegrass (Poa annua L.); test: Whole plant confirmation of target-site resistance (visual control and dry biomass 28 days after treatment); assay type: in vivo
# Description: Progeny of all POAAN-R3 plants subjected to genetic sequencing (RP1–RP8) were surface seeded into separate 10.2 × 10.2 cm greenhouse pots (Dillen Products/Myers Industries, Inc. Middlefield, OH, USA.) filled with a peat moss growing medium (ProMix BX Mycorrhizae. Premier Tech Horticulture, Quakertown, PA, USA) on 5 January 2015. The susceptible annual bluegrass population (S) included in our sequencing analysis was also seeded in the same fashion.
# After seeding, pots were placed inside a growth chamber (Conviron A1000. Controlled Environments Inc, Hendersonville, NC) configured to provide 14 h day at 19 °C and a 10 h night at 10 °C. Light intensity inside the chamber averaged 296 μmol m^−2 s^−1. Irrigation was applied to each pot daily using distilled water and a misting nozzle. Annual bluegrass emergence was first noted on 16 January 2015. Plants remained inside the growth chamber until 26 January 2015. On this date, seedlings of each plant (RP1–RP8, S) were transplanted into individual 164 cm^3 plastic conical containers (SC10 Super Cell Cone-tainer. Stuewe and Sons. Tangent, OR 97389) filled with Sequatchie silt loam (fine-loamy, siliceous, semiactive, thermic humic Hapludult) measuring 6.2 in soil pH and 2.1 % in organic matter content. Transplants were replicated such that 32 plastic conical containers were created for each annual bluegrass plant analyzed in previous experiments (RP1–RP8, S). Immediately after transplanting, plastic conical containers were placed in a glasshouse located at the University of Tennessee (Knoxville, TN, USA; 35.56, 83.56). Peak light intensity in this glasshouse averaged 714 μmol m^−2 s^−1 with day/night temperatures averaging 27/17 °C. Irrigation was applied daily using an overhead misting system and plants were not clipped prior to initiating this study.
# Plants were allowed to acclimate to this glasshouse environment for 10 days prior to being treated with foramsulfuron (Revolver. Bayer Environmental Sciences. Research Triangle Park, NC, USA) at 29 g ha^−1, imazamox (Clearcast. BASF Corporation. Research Triangle Park, NC) at 140 g ha^−1, or simazine (Princep 4L. Syngenta Professional Products. Greensboro, NC) at 1120 g ha^−1. Per label recommendations, imazamox and simazine treatments included a non-ionic surfactant (Activator-90. Loveland Products Inc. Greeley, CO, USA) at 0.25 % v/v. All treatments were applied in an enclosed spray chamber (Generation III track sprayer. DeVries Manufacturing, Hollandale, MN, USA) using a water carrier at 215 L ha^−1 through an 8004 EVS nozzle (TeeJet, Technologies, Spraying Systems Co., Glendale Heights, IL, USA). These herbicide treatments were selected to confirm results of genetic sequencing that RP1–RP8 were resistant to sulfonylurea, imidazolinone, and photosystem II inhibiting herbicides. A non-treated control treatment was included with each resistant (RP1–RP8) and susceptible (S) plant for comparison. Herbicides were applied on 5 February 2015 when plants were at a two-to-three leaf stage, prior to annual bluegrass tiller formation.
# Annual bluegrass control was visually assessed on a 0 (i.e., no control) to 100 % (i.e., complete kill) scale relative to the non-treated 28 days after treatment. After all control data had been collected, aboveground biomass was harvested from each plastic conical container at the soil line using scissors, dried at 100 °C for 3 days, and weighed.
# Treatments were arranged as a 9 × 4 factorial with nine plant selections (i.e., RP1–RP8, S) and four herbicide treatments (i.e., foramsulfuron, imazamox, simazine, non-treated) in a completely randomized design with four replications and repeated in time and space during February 2015. Plants were the same age during both experimental runs.
# [3] = target: T1, recombinant Arabidopsis thaliana ALS wild-type enzyme (WT—sensitive) (Arabidopsis thaliana, UniProt P17597); test: biochemical; conditions: concentration for 50 % inhibition of WT enzyme; max inhibitor concentration 1.00 × 10^−04 M; read-out: WT sensitivity [IC50]
# T1 construct: Protein constructs contained an 85 amino acid N-terminal deletion (chloroplast transit peptide); Hexa-histidine tag (N); made in house
# T1 sequence (P17597 86-670): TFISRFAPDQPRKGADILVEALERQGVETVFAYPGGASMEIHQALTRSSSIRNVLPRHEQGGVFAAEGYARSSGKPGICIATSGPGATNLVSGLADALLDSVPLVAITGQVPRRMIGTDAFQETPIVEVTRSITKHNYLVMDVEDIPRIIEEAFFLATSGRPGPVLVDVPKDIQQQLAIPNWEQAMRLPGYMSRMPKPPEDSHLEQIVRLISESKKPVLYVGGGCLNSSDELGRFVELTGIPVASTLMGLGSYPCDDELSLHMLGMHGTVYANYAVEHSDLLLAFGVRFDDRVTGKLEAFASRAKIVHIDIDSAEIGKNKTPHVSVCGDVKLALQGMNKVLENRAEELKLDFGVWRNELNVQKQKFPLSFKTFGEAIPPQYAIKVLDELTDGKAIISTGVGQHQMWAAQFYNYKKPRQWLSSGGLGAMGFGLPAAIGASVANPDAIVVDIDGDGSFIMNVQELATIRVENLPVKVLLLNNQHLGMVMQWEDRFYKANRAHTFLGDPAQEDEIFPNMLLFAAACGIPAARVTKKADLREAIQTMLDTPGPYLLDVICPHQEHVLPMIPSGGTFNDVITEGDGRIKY
# In short: (§1)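 His-tagged enzymes lacking the 85-residue N-terminal transit peptide, expressed and purified. Herbicides in DMSO added; reaction 60 min at 30 °C, stopped with H2SO4, acetolactate converted to acetoin at 56 °C for 15 min.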
# [4] = test system: annual bluegrass (Poa annua L.); test: Whole plant non-target site resistance experiment with P450 inhibitors malathion or PBO (control 21 days after treatment); assay type: in vivo; conditions: for Annual bluegrass control S: susceptible (S)
# Description: Additional experiments were conducted during March–April 2015 to determine if non-target site based mechanisms conferred resistance to ALS inhibitors in our annual bluegrass population, POAAN-R3. Plants (RP6, RP7, and S) were cultured in plastic conical containers as previously described and allowed to acclimate to the glasshouse for 18 days prior to initiating two experiments.
# In the first experiment, resistant (RP6, RP7) and susceptible (S) plants were treated with foramsulfuron at 29 g ha^−1, trifloxysulfuron (Monument. Syngenta Professional Products. Greensboro, NC, USA) at 27.8 g ha^−1, imazaquin (Image. BASF Corporation. Research Triangle Park, NC) at 27.5 g ha^−1, or bispyribac-sodium (Velocity. Valent USA Corporation. Walnut Creek, CA, USA) at 70 g ha^−1. All herbicides were applied alone or in combination with either malathion (Spectrum Group. St. Louis, MO, USA) at 1000 g ha^−1 or piperonyl butoxide (Sigma Aldrich. St. Louis, MO, USA) at 2100 g ha^−1. Malathion and piperonyl butoxide (PBO) inhibit cytochrome P450 monooxygenases involved in metabolism of ALS inhibiting herbicides and are commonly used at the application rates tested herein to evaluate non-target site based resistance mechanisms in weeds (Burnet et al. [1994]; Christopher et al. [1992]; Yu and Powles [2014b]; Rao et al. [1995]). All herbicides were mixed in water carrier and included non-ionic surfactant at 0.25 % v/v. Malathion and PBO were mixed with methanol and de-ionized water (50:50) and applied 60 min prior to herbicide application using a previously described enclosed spray chamber on 13 February 2015.
# Annual bluegrass control was visually assessed on a 0 (i.e., no control) to 100 % (i.e., complete kill) scale relative to the non-treated 21 days after treatment. After all control data had been collected, aboveground biomass was harvested from each plastic conical container at the soil line using scissors, dried at 100 °C, and weighed. Treatments were arranged as a 3 × 5 × 3 factorial with three plant selections (RP6, RP7, S), five herbicides (foramsulfuron, trifloxysulfuron, imazaquin, bispyribac-sodium, non-treated) and three P450 inhibitor treatments (malathion, PBO, non-treated) in a completely randomized design with four replications and repeated in separate glasshouses during February 2015.
# [5] = test system: recombinant Arabidopsis thaliana ALS variant W574L; assay type: biochemical; conditions: IC50 mutant divided by IC50 sensitive ALS; max inhibitor concentration 1.00 × 10^−04 M
# In short: as §1
# [6] = test system: recombinant Arabidopsis thaliana ALS variant A205F; assay type: biochemical; conditions: IC50 mutant divided by IC50 sensitive ALS; max inhibitor concentration 1.00 × 10^−04 M
# In short: as §1
# [7] = test system: recombinant Arabidopsis thaliana ALS variant A205V; assay type: biochemical; conditions: IC50 mutant divided by IC50 sensitive ALS; max inhibitor concentration 1.00 × 10^−04 M
# In short: as §1
structure (smiles),measurement,setting,value
CCNc1nc(Cl)nc(NCC)n1 [Simazine],control of POAAN-R3,[1]; 140 to 9000 g ha^−1,≤ 20%
same,Annual bluegrass biomass RP1,"[2]; RP1, aboveground dry biomass 28 days after treatment, foramsulfuron 29, imazamox 140, simazine 1120 g ha^-1",124 % of nontreated control
same,Annual bluegrass control RP1,"[2]; RP1 plants, 28 days after treatment, 2 to 3 leaf stage, foramsulfuron 29, imazamox 140, simazine 1120 g ha^−1",0%
same,Annual bluegrass biomass RP2,"[2]; RP2, aboveground dry biomass 28 days after treatment, foramsulfuron 29, imazamox 140, simazine 1120 g ha^-1",105 % of nontreated control
same,Annual bluegrass control RP2,"[2]; RP2 plants, 28 days after treatment, 2 to 3 leaf stage, foramsulfuron 29, imazamox 140, simazine 1120 g ha^−1",0%
same,Annual bluegrass biomass RP3,"[2]; RP3, aboveground dry biomass 28 days after treatment, foramsulfuron 29, imazamox 140, simazine 1120 g ha^-1",140 % of nontreated control
same,Annual bluegrass control RP3,"[2]; RP3 plants, 28 days after treatment, 2 to 3 leaf stage, foramsulfuron 29, imazamox 140, simazine 1120 g ha^−1",0%
same,Annual bluegrass biomass RP4,"[2]; RP4, aboveground dry biomass 28 days after treatment, foramsulfuron 29, imazamox 140, simazine 1120 g ha^-1",95 % of nontreated control
same,Annual bluegrass control RP4,"[2]; RP4 plants, 28 days after treatment, 2 to 3 leaf stage, foramsulfuron 29, imazamox 140, simazine 1120 g ha^−1",0%
same,Annual bluegrass biomass RP5,"[2]; RP5, aboveground dry biomass 28 days after treatment, foramsulfuron 29, imazamox 140, simazine 1120 g ha^-1",82 % of nontreated control
same,Annual bluegrass control RP5,"[2]; RP5 plants, 28 days after treatment, 2 to 3 leaf stage, foramsulfuron 29, imazamox 140, simazine 1120 g ha^−1",0%
same,Annual bluegrass biomass RP6,"[2]; RP6, aboveground dry biomass 28 days after treatment, foramsulfuron 29, imazamox 140, simazine 1120 g ha^-1",0 % of nontreated control
same,Annual bluegrass control RP6,"[2]; RP6 plants, 28 days after treatment, 2 to 3 leaf stage, foramsulfuron 29, imazamox 140, simazine 1120 g ha^−1",100%
same,Annual bluegrass biomass RP7,"[2]; RP7, aboveground dry biomass 28 days after treatment, foramsulfuron 29, imazamox 140, simazine 1120 g ha^-1",99 % of nontreated control
same,Annual bluegrass control RP7,"[2]; RP7 plants, 28 days after treatment, 2 to 3 leaf stage, foramsulfuron 29, imazamox 140, simazine 1120 g ha^−1",0%
same,Annual bluegrass biomass RP8,"[2]; RP8, aboveground dry biomass 28 days after treatment, foramsulfuron 29, imazamox 140, simazine 1120 g ha^-1",101 % of nontreated control
same,Annual bluegrass control RP8,"[2]; RP8 plants, 28 days after treatment, 2 to 3 leaf stage, foramsulfuron 29, imazamox 140, simazine 1120 g ha^−1",0%
same,Annual bluegrass control S,"[2]; susceptible (S) plants, 28 days after treatment, 2 to 3 leaf stage, foramsulfuron 29, imazamox 140, simazine 1120 g ha^−1",98%
same,Annual bluegrass biomass S,"[2]; susceptible (S), aboveground dry biomass 28 days after treatment, foramsulfuron 29, imazamox 140, simazine 1120 g ha^-1",5 % of nontreated control
COc1cc(OC)nc(NC(=O)NS(=O)(=O)c2ncccc2OCC(F)(F)F)n1 [Trifloxysulfuron],control of POAAN-R3,[1]; rates as high as 223 g ha^−1,≤ 40%
same,IC50,[3],5.9 nM
same,Annual bluegrass control RP6,"[4]; RP6, herbicide alone, foramsulfuron 29, trifloxysulfuron 27.8, imazaquin 27.5, bispyribac-sodium 70 g ha^−1",38%
same,Annual bluegrass control RP6,"[4]; RP6, herbicide with PBO 2100 g ha^−1 applied 60 min prior",55%
same,Annual bluegrass control RP6,"[4]; RP6, herbicide with malathion 1000 g ha^−1 applied 60 min prior",49%
same,Annual bluegrass control RP7,"[4]; RP7, herbicide alone, foramsulfuron 29, trifloxysulfuron 27.8, imazaquin 27.5, bispyribac-sodium 70 g ha^−1",22%
same,Annual bluegrass control RP7,"[4]; RP7, herbicide with PBO 2100 g ha^−1 applied 60 min prior",17%
same,Annual bluegrass control RP7,"[4]; RP7, herbicide with malathion 1000 g ha^−1 applied 60 min prior",28%
same,Annual bluegrass control S,"[4]; herbicide alone, foramsulfuron 29, trifloxysulfuron 27.8, imazaquin 27.5, bispyribac-sodium 70 g ha^−1",94%
same,Annual bluegrass control S,[4]; herbicide with PBO 2100 g ha^−1 applied 60 min prior,94%
same,Annual bluegrass control S,[4]; herbicide with malathion 1000 g ha^−1 applied 60 min prior,92%
same,Resistance factor W574L,[5],6447
same,Resistance factor A205F,[6],2983
same,Resistance factor A205V,[7],9
